As usually defined, the IC50 is the concentration needed to halve the response being measured. Low readings indicate greater potency, high ones weaker potency.

Some results are limits rather than exact numbers.

In US10703756B2, “Pyrrolo[2,3-D]pyrimidinyl, pyrrolo[2,3-B]pyrazinyl, pyrrolo[2,3-B]pyridinyl acrylamides and epoxides thereof” (Pfizer Inc., priority 2015, dated 2020) one finds IC50 data, which are given here for 24 compounds.

Experiment [1] concerns the target T1, JAK3 enzyme (Homo sapiens, UniProt P52333).
T1 sequence (P52333 1-1124): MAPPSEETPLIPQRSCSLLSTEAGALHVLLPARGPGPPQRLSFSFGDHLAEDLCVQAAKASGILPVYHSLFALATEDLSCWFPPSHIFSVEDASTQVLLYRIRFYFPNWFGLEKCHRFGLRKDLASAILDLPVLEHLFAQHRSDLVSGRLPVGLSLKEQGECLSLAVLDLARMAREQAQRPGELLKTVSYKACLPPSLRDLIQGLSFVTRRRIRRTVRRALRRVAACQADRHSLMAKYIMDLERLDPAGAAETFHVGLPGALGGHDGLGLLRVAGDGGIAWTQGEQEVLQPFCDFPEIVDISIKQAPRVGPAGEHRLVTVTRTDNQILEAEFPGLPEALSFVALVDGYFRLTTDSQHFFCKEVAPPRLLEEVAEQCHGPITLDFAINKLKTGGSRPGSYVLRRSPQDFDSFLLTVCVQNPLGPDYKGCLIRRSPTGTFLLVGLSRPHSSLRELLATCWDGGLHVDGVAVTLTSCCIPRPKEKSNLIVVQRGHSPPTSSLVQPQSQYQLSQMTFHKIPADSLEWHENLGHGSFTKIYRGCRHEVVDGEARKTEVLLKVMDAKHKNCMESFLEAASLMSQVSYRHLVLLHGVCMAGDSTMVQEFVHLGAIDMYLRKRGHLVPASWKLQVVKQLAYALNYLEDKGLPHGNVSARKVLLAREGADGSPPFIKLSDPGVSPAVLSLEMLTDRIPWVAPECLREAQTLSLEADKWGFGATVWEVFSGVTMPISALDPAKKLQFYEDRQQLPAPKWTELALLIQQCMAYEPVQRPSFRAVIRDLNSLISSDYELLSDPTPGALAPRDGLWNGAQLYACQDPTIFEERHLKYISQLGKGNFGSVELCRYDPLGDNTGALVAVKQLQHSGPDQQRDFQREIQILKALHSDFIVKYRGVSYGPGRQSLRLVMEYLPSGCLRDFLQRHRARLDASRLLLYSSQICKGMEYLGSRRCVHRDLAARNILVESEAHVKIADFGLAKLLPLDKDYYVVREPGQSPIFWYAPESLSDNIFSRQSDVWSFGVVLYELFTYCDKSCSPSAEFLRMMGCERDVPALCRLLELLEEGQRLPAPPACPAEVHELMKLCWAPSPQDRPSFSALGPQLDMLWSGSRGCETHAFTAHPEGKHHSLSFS
In words: JAK Caliper Enzyme Assay at 1 mM ATP. It is filed as biochemical. As for the experimental part:
(§1) Test article was solubilized in dimethyl sulfoxide (DMSO) to a stock concentration of 30 mM. An 11-point half log dilution series was created in DMSO with a top concentration of 600 μM. […] Test article and assay controls were added to a 384-well plate. […] Enzyme concentrations and incubation times were optimized for each new enzyme preps and were modified slightly over time to ensure 20%-30% phosphorylation. […] The assay plates were placed on a Caliper Life Science Lab Chip 3000 (LC3000) instrument, and each well was sampled using appropriate separation conditions to measure the unphosphorylated and phosphorylated peptide.

Experiment [2] addresses T1, JAK3 enzyme. In words: JAK Caliper Enzyme Assay at 4 μM ATP. The class given is biochemical. As for the experimental part: as §1

Take `C=CC(=O)N1CCC(Oc2cnc3[nH]cc(C(=O)NCc4ccccc4F)c3c2)CC1` [Example 346, 5-[(1-acryloylpiperidin-4-yl)oxy]-N-(2-fluorobenzyl)-1H-pyrrolo[2,3-b]pyridine-3-carboxamide]: the IC50 against JAK3 enzyme [1] came to 4440 nM; on JAK3 enzyme [2], 40.9 nM.

Regarding `C=CC(=O)N1CC[C@@H](COc2cnc3[nH]cc(C(=O)N[C@H](C)COC)c3n2)C1` (single isomer, unassigned) [Example 14], the IC50 was found to be 3010 nM against JAK3 enzyme [1] and 54.8 nM against JAK3 enzyme [2].

Take `C=CC(=O)N1CC[C@H](CNc2cnc3[nH]cc(C(=O)N[C@H](C)COC)c3n2)C1` (single isomer, unassigned) [Example 21]: the IC50 on JAK3 enzyme [1] came to 633 nM; against JAK3 enzyme [2], 4.69 nM.

`C=CC(=O)N1CCN(c2cnc3[nH]cc(C(=O)NC(CO)c4ccccc4F)c3n2)CC1(C)C` (racemic) [Example 154, Racemic-2-(4-acryloyl-3,3-dimethylpiperazin-1-yl)-N-[1-(2-fluorophenyl)-2-hydroxyethyl]-5H-pyrrolo[2,3-b]pyrazine-7-carboxamide]: the IC50 on JAK3 enzyme [1] amounted to 590 nM; at JAK3 enzyme [2] it was 4.68 nM.

As for `C=CC(=O)N1CC[C@@H](CNc2cnc3[nH]cc(C(=O)N[C@H](C)COC)c3n2)C1` (single isomer, unassigned) [Example 20], the IC50 at JAK3 enzyme [1] came out at 926 nM; on JAK3 enzyme [2], 5.42 nM.

As to `C=CC(=O)N1C[C@@H](CC)[C@@H](Nc2cnc3[nH]cc(C(=O)NCC)c3n2)C1` [Example 263, 2-{[(3R,4R)-1-acryloyl-4-ethylpyrrolidin-3-yl]amino}-N-ethyl-5H-pyrrolo[2,3-b]pyrazine-7-carboxamide], the IC50 at JAK3 enzyme [1] came to 6460 nM; at JAK3 enzyme [2], 52.4 nM.

Take `C=CC(=O)N1CCC(N(C)c2cnc3[nH]cc(C(=O)N4CCC4)c3n2)CC1` [Example 62, 1-(4-{[7-(azetidin-1-ylcarbonyl)-5H-pyrrolo[2,3-b]pyrazin-2-yl](methyl)amino}piperidin-1-yl)prop-2-en-1-one]: the IC50 on JAK3 enzyme [1] came out at 2700 nM; on JAK3 enzyme [2], 13.5 nM.

With `C=CC(=O)N1C[C@H](Nc2cnc3[nH]cc(C(=O)NCC)c3n2)[C@@](C)(C#N)C1` [Example 240, 2-{[(3R,4S)-1-acryloyl-4-cyano-4-methylpyrrolidin-3-yl]amino}-N-ethyl-5H-pyrrolo[2,3-b]pyrazine-7-carboxamide], the IC50 against JAK3 enzyme [1] was determined as 4060 nM; at JAK3 enzyme [2], 10.9 nM.

As to `C=CC(=O)N1CC(Nc2cnc3[nH]cc(C(=O)NCCCC(F)(F)F)c3n2)C2(CC2)C1` (stereo not drawn) [Example 249, 2-[(5-acryloyl-5-azaspiro[2.4]hept-7-yl)amino]-N-(4,4,4-trifluorobulyl)-5H-pyrrolo[2,3-b]pyrazine-7-carboxamide], the results for the IC50 on JAK3 enzyme [1] and on JAK3 enzyme [2] were > 10000 nM and 75.3 nM, respectively.

Consider `C=CC(=O)N1C[C@@H](C)[C@@H](Nc2cnc3[nH]cc(C(=O)NCC)c3n2)C1` (stereo in doubt) [Example 248, 2-[(1-acryloyl-4-methylpyrrolidin-3-yl)amino]-N-ethyl-5H-pyrrolo[2,3-b]pyrazine-7-carboxamide], for which the results for the IC50 at JAK3 enzyme [1] and on JAK3 enzyme [2] were 5330 nM and 48.7 nM, respectively.

Turning to `C=CC(=O)N1CCN(c2cnc3[nH]cc(C(=O)N[C@H](C)COC)c3n2)CC1(C)COC` (stereo partly drawn) [Example 63, 2-(4-acryloyl-3-(methoxymethyl)-3-methylpiperazin-1-yl)-N-((R)-1-methoxypropan-2-yl)-5H-pyrrolo[2,3-b]pyrazine-7-carboxamide], the IC50 is 379 nM against JAK3 enzyme [1] and 2.44 nM against JAK3 enzyme [2].

With `C=CC(=O)N1CCC(Oc2cnc3[nH]cc(C(=O)NCCCC)c3c2)CC1` [Example 348, 5-[(1-acryloylpiperidin-4-yl)oxy]-N-butyl-1H-pyrrolo[2,3-b]pyridine-3-carboxamide], the IC50 came out at 1190 nM against JAK3 enzyme [1] and 10.2 nM against JAK3 enzyme [2].

Regarding `C=CC(=O)N1CCC(Oc2cnc3[nH]cc(C(=O)N[C@H](C(C)C)[C@@H](O)C(F)(F)F)c3n2)CC1` [Example 202, 2-[(1-acryloylpiperidin-4-yl)oxy]-N-[(2R,3R)-1,1,1-trifluoro-2-hydroxy-4-methylpentan-3-yl]-5H-pyrrolo[2,3-b]pyrazine-7-carboxamide], the results for the IC50 on JAK3 enzyme [1] and against JAK3 enzyme [2] were 697 nM and 5.31 nM, respectively.

Regarding `C=CC(=O)N1C[C@H](Nc2cnc3[nH]cc(C(=O)NCC)c3n2)[C@H](C2CC2)C1` [Example 261, 2-{[(3R,4R)-1-acryloyl-4-cyclopropylpyrrolidin-3-yl]amino}-N-ethyl-5H-pyrrolo[2,3-b]pyrazine-7-carboxamide], the values for the 50% inhibitory concentration (IC50) against JAK3 enzyme [1] and at JAK3 enzyme [2] were > 10000 nM and 259 nM, respectively.

In the case of `C=CC(=O)N1CCC(Oc2cnc3[nH]cc(C(=O)NCC(C)(C)C)c3n2)CC1` [Example 221, 2-[(1-acryloylpiperidin-4-yl)oxy]-N-(2,2-dimethylpropyl)-5H-pyrrolo[2,3-b]pyrazine-7-carboxamide], the values for the IC50 at JAK3 enzyme [1] and at JAK3 enzyme [2] were 713 nM and 4.4 nM, respectively.

In the case of `C=CC(=O)N1C[C@H](Nc2cnc3[nH]cc(C(=O)NCCOC)c3n2)C[C@H]1COCC` [Example 233, 2-{[(3R,5S)-1-acryloyl-5-(ethoxymethyl)pyrrolidin-3-yl]amino}-N-(2-methoxyethyl)-5H-pyrrolo[2,3-b]pyrazine-7-carboxamide], the IC50 worked out at 1100 nM at JAK3 enzyme [1] and 6.79 nM at JAK3 enzyme [2].

On to `C=CC(=O)N1C[C@H](Nc2cnc3[nH]cc(C(=O)NCC)c3n2)[C@](C)(C#N)C1` [Example 251, 2-{[(3R,4R)-1-acryloyl-4-cyano-4-methylpyrrolidin-3-yl]amino}-N-ethyl-5H-pyrrolo[2,3-b]pyrazine-7-carboxamide], for which the figures for the IC50 on JAK3 enzyme [1] and at JAK3 enzyme [2] were 1320 nM and 5.12 nM, respectively.

For the compound `C=CC(=O)N1CCC(Nc2cnc3[nH]cc(C(=O)NC[C@H](C)CC(F)(F)F)c3n2)CC1C` (stereo partly drawn) [Example 280, 2-[(1-acryloyl-2-methylpiperidin-4-yl)amino]-N-[(2R)-4,4,4-trifluoro-2-methylbutyl]-5H-pyrrolo[2,3-b]pyrazine-7-carboxamide], the values for the IC50 against JAK3 enzyme [1] and against JAK3 enzyme [2] were 501 nM and 2.49 nM, respectively.

Take `C=CC(=O)N1CCC(Oc2cnc3[nH]cc(C(=O)NCc4ccccc4)c3c2)CC1` [Example 342, 5-[(1-acryloylpiperidin-4-yl)oxy]-N-benzyl-1H-pyrrolo[2,3-b]pyridine-3-carboxamide]: the figures for the IC50 against JAK3 enzyme [1] and on JAK3 enzyme [2] were 2630 nM and 26.4 nM, respectively.

As to `C=CC(=O)N1CCC(Oc2cnc3[nH]cc(C(=O)N[C@H]4CC[C@@H](F)C4)c3c2)CC1` [Example 344, 5-[(1-acryloylpiperidin-4-yl)oxy]-N-[(1S,3R)-3-fluorocyclopentyl]-1H-pyrrolo[2,3-b]pyridine-3-carboxamide], the 50% inhibitory concentration (IC50) amounted to 2540 nM against JAK3 enzyme [1] and 26.7 nM at JAK3 enzyme [2].

Regarding `C=CC(=O)N1CC(Nc2cnc3[nH]cc(C(=O)NCCC(F)(F)F)c3n2)C2(CC2)C1` (stereo not drawn) [Example 252, 2-[(5-acryloyl-5-azaspiro[2.4]hept-7-yl)amino]-N-(3,3,3-trifluoropropyl)-5H-pyrrolo[2,3-b]pyrazine-7-carboxamide], the IC50 against JAK3 enzyme [1] was > 10000 nM; at JAK3 enzyme [2], 110 nM.

As for `C=CC(=O)N1CCC(Oc2cnc3[nH]cc(C(=O)NC[C@@]4(O)CCCC[C@H]4F)c3n2)CC1` [Example 208, 2-[(1-acryloylpiperidin-4-yl)oxy]-N-{[(2R)-2-fluoro-1-hydroxycyclohexyl]methyl}-5H-pyrrolo[2,3-b]pyrazine-7-carboxamide], the IC50 came to 734 nM against JAK3 enzyme [1] and 6.99 nM against JAK3 enzyme [2].

For the compound `C=CC(=O)N1CCC(Oc2cnc3[nH]cc(C#N)c3n2)CC1` [Example 114, 2-[(1-Acryloylpiperidin-4-yl)oxy]-5H-pyrrolo[2,3-b]pyrazine-7-carbonitrile], the IC50 on JAK3 enzyme [1] stood at 3810 nM; against JAK3 enzyme [2], 19.7 nM.

Turning to `C=CC(=O)N1CCC(Oc2cnc3[nH]cc(C(=O)N[C@@H]4C[C@H]4C(F)(F)F)c3n2)CC1` [Example 216, 2-[(1-acryloylpiperidin-4-yl)oxy]-N-[(1R,2R)-2-(trifluoromethyl)cyclopropyl]-5H-pyrrolo[2,3-b]pyrazine-7-carboxamide], the figures for the IC50 against JAK3 enzyme [1] and against JAK3 enzyme [2] were 463 nM and 3.27 nM, respectively.
